Among the data in PubChem BioAssay (NCI) are GI50 and TGI values, retold here.

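Protocol summary: plate cells (96-well), add compound at 5 concentrations, incubate 48 h, interpolate endpoints linearly. Here, GI50 denotes the concentration required for 50% inhibition of growth. TGI is the concentration that stops growth completely.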 Some results are limits rather than exact numbers.

Test systems include COLO 205 colon; HCC-2998 colon; MCF7 breast; MDA-MB-231 breast; NCI-H23 lung; NCI/ADR-RES ovarian; PC-3 prostate; SF-295 CNS; SK-MEL-2 melanoma; SW-620 colon.
Holding throughout (assay): NCI tumour cell line growth inhibition, 48 h

Turning to `N#Cc1c(-c2ccccc2)nc2c(c(-c3ccccc3)nn2-c2ccccc2)c1-c1ccc(O)cc1`, the GI50 in the assay on COLO 205 colon is 2.61 µM; in the assay with HCC-2998 colon, 1.84 µM; in the assay with MCF7 breast, 1.86 µM; with MDA-MB-231 breast, 1.7 µM; in the assay with NCI-H23 lung, 1.78 µM; in the assay on NCI/ADR-RES ovarian, 2.27 µM. For the same compound, the GI50 in the assay with PC-3 prostate is 1.82 µM; with SF-295 CNS, 1.88 µM; in the assay with SK-MEL-2 melanoma, 2.39 µM; in the assay on SW-620 colon it was 1.86 µM. The TGI in the assay with COLO 205 colon was determined as 6.31 µM; in the assay on HCC-2998 colon it was 3.47 µM; in the assay with MCF7 breast it was 4.76 µM; with MDA-MB-231 breast it was 3.31 µM; with NCI-H23 lung, 3.84 µM; in the assay with NCI/ADR-RES ovarian it was 5.62 µM. The TGI came to 3.78 µM in the assay on PC-3 prostate, 4.29 µM with SF-295 CNS, 5.65 µM in the assay with SK-MEL-2 melanoma and 3.53 µM in the assay on SW-620 colon.

`CNC(=O)c1ccc(-c2cnc3ncc(Cc4ccc5ncccc5c4)n3n2)cc1F`: the GI50 is > 100 µM in the assay with COLO 205 colon; > 100 µM with HCC-2998 colon; > 100 µM with MCF7 breast; 40.8 µM in the assay with MDA-MB-231 breast; > 100 µM with NCI-H23 lung; > 100 µM with NCI/ADR-RES ovarian. Also, the GI50 in the assay on PC-3 prostate was > 100 µM; with SF-295 CNS, 22.1 µM; in the assay on SK-MEL-2 melanoma, 97.1 µM; in the assay with SW-620 colon, > 100 µM. Further, the TGI with COLO 205 colon, with HCC-2998 colon, in the assay with MCF7 breast, with MDA-MB-231 breast, with NCI-H23 lung and with NCI/ADR-RES ovarian was > 100 µM in each case. The TGI in the assay on PC-3 prostate, in the assay with SF-295 CNS, with SK-MEL-2 melanoma and in the assay with SW-620 colon was > 100 µM in each case.

Turning to `CCCNCc1cc(C)cc2c1nc(N1CCNCC1)n2Cc1cc(C)c(F)c(C)c1`, the GI50 was 1.82 µM in the assay with COLO 205 colon; 1.83 µM in the assay on HCC-2998 colon; 2.25 µM in the assay with MCF7 breast; 1.61 µM with MDA-MB-231 breast; 12.8 µM in the assay with NCI-H23 lung; 16.1 µM in the assay on NCI/ADR-RES ovarian. Moreover, the GI50 in the assay with PC-3 prostate is 2.49 µM; in the assay on SF-295 CNS, 1.79 µM; with SK-MEL-2 melanoma it was 14.1 µM; in the assay on SW-620 colon, 1.96 µM. For the same compound, the TGI in the assay with COLO 205 colon worked out at 3.42 µM; with HCC-2998 colon, 3.47 µM; with MCF7 breast, 6.05 µM; in the assay with MDA-MB-231 breast, 3.8 µM; in the assay with NCI-H23 lung it was 27.3 µM; with NCI/ADR-RES ovarian, 31 µM. For the same compound, the TGI was 7.66 µM in the assay with PC-3 prostate, 3.57 µM with SF-295 CNS, 28.1 µM in the assay on SK-MEL-2 melanoma and 4.34 µM in the assay on SW-620 colon.

Turning to `CCCCCCNc1nc(NCCCCCC)c2[nH]c(NCCCCCC)nc2n1`, the GI50 is 1.32 µM with COLO 205 colon; 12.5 µM with HCC-2998 colon; 3.22 µM in the assay with MCF7 breast; 5.09 µM in the assay with MDA-MB-231 breast; 8.77 µM in the assay with NCI-H23 lung; 64.5 µM in the assay on NCI/ADR-RES ovarian. Also, the GI50 in the assay with PC-3 prostate is 9.14 µM; in the assay with SF-295 CNS, 12.8 µM; in the assay with SK-MEL-2 melanoma, 11.5 µM; with SW-620 colon it was 3.04 µM. The TGI in the assay with COLO 205 colon was 2.76 µM; with HCC-2998 colon it was 26.8 µM; in the assay on MCF7 breast, 15.8 µM; in the assay with MDA-MB-231 breast, 19.3 µM; in the assay on NCI-H23 lung, 23.3 µM; in the assay on NCI/ADR-RES ovarian, > 100 µM. For the same compound, the TGI with PC-3 prostate came to 28.9 µM; in the assay on SF-295 CNS it was 31.3 µM; in the assay with SK-MEL-2 melanoma, 28.7 µM; with SW-620 colon, 12.3 µM.

Take `CN(C)CCNC(=O)Nc1c(C#N)[n+]([O-])c2cc(Cl)c(Cl)cc2[n+]1[O-]`: the GI50 with COLO 205 colon is 16.1 µM; in the assay on HCC-2998 colon it was 27.4 µM; in the assay on MCF7 breast, 18.5 µM; with MDA-MB-231 breast, 19.9 µM; with NCI-H23 lung, 27 µM; in the assay with NCI/ADR-RES ovarian, > 100 µM. In addition, the GI50 with PC-3 prostate was 18.4 µM; with SF-295 CNS, 15 µM; with SK-MEL-2 melanoma, 15.9 µM; with SW-620 colon, 17.4 µM. The TGI in the assay with COLO 205 colon was 46.3 µM; with HCC-2998 colon, > 100 µM; in the assay with MCF7 breast, > 100 µM; with MDA-MB-231 breast, 56.9 µM; in the assay with NCI-H23 lung, > 100 µM; in the assay on NCI/ADR-RES ovarian it was > 100 µM. Besides, the TGI in the assay with PC-3 prostate is > 100 µM; in the assay with SF-295 CNS it was 84.8 µM; with SK-MEL-2 melanoma it was 50.6 µM; in the assay with SW-620 colon it was 69.7 µM.

Turning to `COC(=O)C(Cc1ccccc1)N/C=C\C(=O)c1ccc(Cl)cc1` (stereo not given), the GI50 was 32.5 µM in the assay on COLO 205 colon; 18.5 µM with HCC-2998 colon; 26.2 µM with MCF7 breast; 14.4 µM in the assay with MDA-MB-231 breast; 18.3 µM in the assay with NCI-H23 lung; 19.7 µM with NCI/ADR-RES ovarian. Besides, the GI50 in the assay on PC-3 prostate is 18.8 µM; in the assay on SF-295 CNS, 14.8 µM; in the assay on SK-MEL-2 melanoma it was 59.9 µM; in the assay with SW-620 colon, 31.7 µM. Besides, the TGI in the assay with COLO 205 colon is > 100 µM; in the assay with HCC-2998 colon, 40.1 µM; with MCF7 breast, 66.4 µM; in the assay on MDA-MB-231 breast, 40.9 µM; in the assay on NCI-H23 lung, 45.7 µM; in the assay on NCI/ADR-RES ovarian it was 50.4 µM. Further, the TGI with PC-3 prostate was 45 µM; with SF-295 CNS, 35.8 µM; in the assay on SK-MEL-2 melanoma, > 100 µM; with SW-620 colon it was 97.2 µM.

As for `CCN(Cc1c(F)cccc1F)c1ccc(CO)c(Cl)c1`, the GI50 with COLO 205 colon is 0.387 µM; in the assay with HCC-2998 colon, 1.15 µM; in the assay on MCF7 breast, 0.0488 µM; in the assay on MDA-MB-231 breast, 13 µM; in the assay with NCI-H23 lung, 15 µM; with NCI/ADR-RES ovarian, 6.86 µM. The GI50 is 12.6 µM with PC-3 prostate, 0.108 µM in the assay with SF-295 CNS, 14.6 µM in the assay with SK-MEL-2 melanoma and 0.139 µM with SW-620 colon. For the same compound, the TGI came out at 1.61 µM with COLO 205 colon; 10.7 µM in the assay with HCC-2998 colon; 18.4 µM with MCF7 breast; 38.3 µM in the assay with MDA-MB-231 breast; 57.5 µM in the assay on NCI-H23 lung; 43.2 µM in the assay on NCI/ADR-RES ovarian. Moreover, the TGI in the assay with PC-3 prostate was 46.9 µM; in the assay on SF-295 CNS, 28 µM; in the assay on SK-MEL-2 melanoma it was 31.8 µM; in the assay with SW-620 colon, > 90.4 µM.
